The structures appear in SMILES notation. pEC50: −log10 of the molar value.

In one assay the test system is VEGF. Description: Hypoxia-inducible endogenous VEGF expression ELISA in HeLa cells. To be noted: Homo sapiens, HeLa, compounds 1-155, hypoxic conditions (1% O2), VEGF protein by ELISA, read-out: ELISA Activity. It counts as cell-based. The method in brief: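 HeLa cells held 24–48 h in hypoxia (1% O2) with a concentration series of compound; VEGF secreted into media quantified by ELISA against a standard curve. Parallel Cell Titer Glo viability under identical conditions gives CC50; EC50 from percent-inhibition curves.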
For `COc1ccc(NC2CCCc3c2[nH]c2ccc(Cl)cc32)cc1` (centres unmarked) [Compound 136, (6-Chloro-2,3,4,9-tetrahydro-1H-carbazol-1-yl)-(4-methoxy-phenyl)-amine], the pEC50 is greater than 8.00.

As to `Fc1ccccc1NC1CCCc2c1[nH]c1ccc(Br)cc21` (centres unmarked) [Compound 17, (6-Bromo-2,3,4,9-tetrahydro-1H-carbazol-1-yl)-(2-fluoro-phenyl)-amine], the pEC50 was greater than 8.00.

For `Brc1ccc2[nH]c3c(c2c1)CCCC3Nc1ccc(-c2ccccc2)cc1` (centres unmarked) [Compound 28, Biphenyl-4-yl-(6-bromo-2,3,4,9-tetrahydro-1H-carbazol-1-yl)-amine], the pEC50 was 7.40 to 8.00.

As for `O=Cc1ccn(C2CCCc3c2[nH]c2ccc(Br)cc32)c1` (centres unmarked) [Compound 38, 1-(6-Bromo-2,3,4,9-tetrahydro-1H-carbazol-1-yl)-1H-pyrrole-3-carbaldehyde], the pEC50 was 6.70 to 7.40.

As to `Cc1cc(C)cc(NC2CCCc3c2[nH]c2ccc(Br)cc32)c1` (centres unmarked) [Compound 23, (6-Bromo-2,3,4,9-tetrahydro-1H-carbazol-1-yl)-(3,5-dimethyl-phenyl)-amine], the pEC50 was 7.40 to 8.00.

On to `Brc1ccc2[nH]c3c(c2c1)CCCC3Nc1ccc(Oc2ccccc2)cc1` (centres unmarked) [Compound 9, (6-Bromo-2,3,4,9-tetrahydro-1H-carbazol-1-yl)-(4-phenoxy-phenyl)-amine], for which the pEC50 was greater than 8.00.

As for `O=C1c2ccccc2C(=O)N1C1CCCc2c1[nH]c1ccc(Br)cc21` (centres unmarked) [Compound 41, 2-(6-Bromo-2,3,4,9-tetrahydro-1H-carbazol-1-yl)-isoindole-1,3-dione], the pEC50 was 6.70 to 7.40.

Consider `O=C(NC1CCCc2c1[nH]c1ccc(Br)cc21)c1cc2ccccc2o1` (centres unmarked) [Compound 124, Benzofuran-2-carboxylic acid (6-bromo-2,3,4,9-tetrahydro-1H-carbazol-1-yl)-amide], for which the pEC50 was 6.00 to 6.70.

`Brc1ccc2[nH]c3c(c2c1)CCCC3n1ccc(CNc2ccccc2)c1` (centres unmarked) [Compound 49, [1-(6-Bromo-2,3,4,9-tetrahydro-1H-carbazol-1-yl)-1H-pyrrol-3-ylmethyl]-phenyl-amine]: the pEC50 is 6.70 to 7.40.

For the compound `Brc1ccc2[nH]c3c(c2c1)CCc1cnn(-c2ccccc2)c1-3` [Compound 109, 7-Bromo-1-phenyl-1,4,5,10-tetrahydro-1,2,10-triaza-cyclopenta[a]fluorine], the pEC50 was less than 6.00.

As for `O=C1c2sccc2CN1C1CCCc2c1[nH]c1ccc(Br)cc21` (centres unmarked) [Compound 5, 5-(6-Bromo-2,3,4,9-tetrahydro-1H-carbazol-1-yl)-4,5-dihydro-thieno[2,3-c]pyrrol-6-one], the pEC50 is greater than 8.00.

`c1ccc2c3c([nH]c2c1)C(n1cccc1)CCC3` (centres unmarked) [Compound 102, 1-Pyrrol-1-yl-2,3,4,9-tetrahydro-1H-carbazole]: the pEC50 is less than 6.00.

For `CCCCNC1CCCc2c1[nH]c1ccc(Br)cc21` (centres unmarked) [Compound 72, (6-Bromo-2,3,4,9-tetrahydro-1H-carbazol-1-yl)-butyl-amine], the pEC50 is 6.00 to 6.70.

Regarding `Brc1ccc2[nH]c3c(c2c1)CCCC3c1ccccc1` (centres unmarked) [Compound 15, 6-Bromo-1-phenyl-2,3,4,9-tetrahydro-1H-carbazole], the pEC50 was greater than 8.00.

Turning to `Fc1cccc(NC2CCCc3c2[nH]c2ccc(Br)cc32)c1` (centres unmarked) [Compound 12, (6-Bromo-2,3,4,9-tetrahydro-1H-carbazol-1-yl)-(3-fluoro-phenyl)-amine], the pEC50 is greater than 8.00.

Consider `COc1ccccc1NC1CCCc2c1[nH]c1ccc(Br)cc21` (centres unmarked) [Compound 45, (6-Bromo-2,3,4,9-tetrahydro-1H-carbazol-1-yl)-(2-methoxy-phenyl)-amine], for which the pEC50 was 6.70 to 7.40.

On to `CC1CCc2c(n(C)c3ccc(Br)cc23)C1=O` (centres unmarked) [Compound 53, 6-Bromo-2,9-dimethyl-2,3,4,9-tetrahydro-carbazol-1-one], for which the pEC50 was 6.70 to 7.40.

Regarding `Brc1ccc2[nH]c3c(c2c1)CCCC3NC1CCC(c2ccccc2)CC1` (centres unmarked) [Compound 27, (6-Bromo-2,3,4,9-tetrahydro-1H-carbazol-1-yl)-(4-phenyl-cyclohexyl)-amine], the pEC50 is 7.40 to 8.00.

For the compound `O=C(NC1CCCc2c1[nH]c1ccc(Cl)cc21)c1ccco1` (centres unmarked) [Compound 144, Furan-2-carboxylic acid (6-chloro-2,3,4,9-tetrahydro-1H-carbazol-1-yl)-amide], the pEC50 was 6.70 to 7.40.

For the compound `NC(=O)c1ccc2[nH]c3c(c2c1)CCCC3n1cccc1` (centres unmarked) [Compound 119, 8-Pyrrol-1-yl-6,7,8,9-tetrahydro-5H-carbazole-3-carboxylic acid amide], the pEC50 was less than 6.00.

With `FC(F)(F)c1ccc2[nH]c3c(c2c1)CCCC3Nc1ccc(Cl)cc1` (centres unmarked) [Compound 138, (4-Chloro-phenyl)-(6-trifluoromethyl-2,3,4,9-tetrahydro-1H-carbazol-1-yl)-amine], the pEC50 was 7.40 to 8.00.

As to `O=C(O)C1CCCc2c1[nH]c1ccc(Br)cc21` (centres unmarked) [Compound 85, 6-Bromo-2,3,4,9-tetrahydro-1H-carbazole-1-carboxylic acid], the pEC50 was less than 6.00.

Regarding `CCOC(=O)C1CCCc2c1[nH]c1ccc(Br)cc21` (centres unmarked) [Compound 90, 6-Bromo-2,3,4,9-tetrahydro-1H-carbazole-1-carboxylic acid ethyl ester], the pEC50 is less than 6.00.

In the case of `Cc1ccc2[nH]c3c(c2c1)CCCC3=O` [Compound 71, 6-Methyl-2,3,4,9-tetrahydro-carbazol-1-one], the pEC50 was 6.00 to 6.70.

Take `Clc1ccc(NC2CCCc3c2[nH]c2ccc(Br)cc32)cc1` (centres unmarked) [Compound 3, (6-Bromo-2,3,4,9-tetrahydro-1H-carbazol-1-yl)-(4-chloro-phenyl)-amine]: the pEC50 is greater than 8.00.

As to `CC(=O)n1c2c(c3cc(Br)ccc31)CCCC2n1cccc1` (centres unmarked) [Compound 13, 1-(6-Bromo-1-pyrrol-1-yl-1,2,3,4-tetrahydro-carbazol-9-yl)ethanone], the pEC50 was greater than 8.00.

Turning to `O=C1CCCc2c1[nH]c1ccc(OC(F)(F)F)cc21` [Compound 73, 6-Trifluoromethoxy-2,3,4,9-tetrahydro-carbazol-1-one], the pEC50 was 6.00 to 6.70.

Turning to `Brc1ccc2[nH]c3c(c2c1)CCCC3NCC1CCCCC1` (centres unmarked) [Compound 67, (6-Bromo-2,3,4,9-tetrahydro-1H-carbazol-1-yl)-cyclohexylmethyl-amine], the pEC50 is 6.00 to 6.70.

The same assay, now with this note: Homo sapiens, HeLa, compounds 191-239, hypoxic conditions, VEGF protein by ELISA, read-out: ELISA Activity EC50.
As for `CC(=O)N1CCN(CC(O)COc2ccc(C3CCCc4c3[nH]c3ccc(Br)cc43)cc2)CC1` (centres unmarked) [Compound 197], the pEC50 is greater than 8.00.

Consider `OC(COc1ccc(C2CCCc3c2[nH]c2ccc(Br)cc32)cc1)CN1CCSCC1` (centres unmarked) [Compound 199], for which the pEC50 was greater than 8.00.

For `OC1CCc2c([nH]c3ccc(Br)cc23)C1c1ccc(Cl)cc1` (centres unmarked) [Compound 238], the pEC50 was greater than 8.00.

Consider `Brc1ccc2[nH]c3c(c2c1)CCCC3c1ccc(OCCCN2CCOCC2)cc1` (centres unmarked) [Compound 210], for which the pEC50 is greater than 8.00.

Regarding `OC1CCc2c([nH]c3ccc(Br)cc23)C1c1ccccc1` (centres unmarked) [Compound 236], the pEC50 was 6.70 to 7.40.

Take `COc1ccc(C2CCCc3c2[nH]c2ccc(Br)cc32)cc1` (centres unmarked) [Compound 192]: the pEC50 was greater than 8.00.

For `Oc1ccc(C2CCCCc3c2[nH]c2ccc(Cl)cc32)cc1` (centres unmarked) [Compound 230], the pEC50 was greater than 8.00.

For the compound `OC(COc1ccc(C2CCCc3c2[nH]c2ccc(Br)cc32)cc1)CN1CCOCC1` (centres unmarked) [Compound 196], the pEC50 is greater than 8.00.

For `Brc1ccc2[nH]c3c(c2c1)CCCC3c1ccc(OCCCn2ccnc2)cc1` (centres unmarked) [Compound 211], the pEC50 is greater than 8.00.

In the case of `COCCN(CCOC)CC(O)COc1ccc(C2CCCCc3c2[nH]c2ccc(Cl)cc32)cc1` (centres unmarked) [Compound 234], the pEC50 was greater than 8.00.

Regarding `OC(COc1ccc(C2CCCc3c2[nH]c2ccc(Cl)cc32)cc1)Cn1cncn1` (centres unmarked) [Compound 222], the pEC50 is 6.70 to 7.40.

Still in this assay, the particulars now being: Homo sapiens, HeLa, purchased compounds 156-188, hypoxic conditions, VEGF protein by ELISA, read-out: ELISA Activity.
On to `CCNC1CCCc2c1[nH]c1ccc(C)cc21` (centres unmarked) [Compound 185, Ethyl-(6-methyl-2,3,4,9-tetrahydro-1H-carbazol-1-yl)-amine], for which the pEC50 was less than 6.00.

In the case of `Cc1ccc2[nH]c3c(c2c1)CCCC3NCCCO` (centres unmarked) [Compound 177, 3-(6-Methyl-2,3,4,9-tetrahydro-1H-carbazol-1-ylamino)-propan-1-ol], the pEC50 is less than 6.00.

Regarding `S=C(Nc1ccccc1)N1CCn2c3c(c4cc(C5CCCCC5)ccc42)CCCC31` (centres unmarked) [Compound 164, 8-Cyclohexyl-1,2,3a,4,5,6-hexahydro-pyrazino[3,2,1-jk]carbazole-3-carbothioic acid phenylamide], the pEC50 is less than 6.00.

For `C1=C(c2ccc3c(c2)c2c4n3CCN(Cc3ccccc3)C4CCC2)C2CCN1CC2` (centres unmarked) [Compound 166, 8-(1-Aza-bicyclo[2.2.2]oct-2-en-3-yl)-3-benzyl-2,3,3a,4,5,6-hexahydro-1H-pyrazino[3,2,1-jk]carbazole], the pEC50 is less than 6.00.

As for `Cc1ccc2c(c1)c1c3n2CCN(C(C)c2ccccc2)C3CCC1` (centres unmarked) [Compound 179, 8-Methyl-3-(1-phenyl-ethyl)-2,3,3a,4,5,6-hexahydro-1H-pyrazino[3,2,1-jk]carbazole], the pEC50 was less than 6.00.

Turning to `CC(=O)N(Cc1ccccc1)C1CCCc2c1[nH]c1ccc(C)cc21` (centres unmarked) [Compound 174, N-Benzyl-N-(6-methyl-2,3,4,9-tetrahydro-1H-carbazol-1-yl)-acetamide], the pEC50 was less than 6.00.

Turning to `Cc1ccc2c(c1)c1c3n2CCN(C(=O)c2ccccc2Cl)C3CCC1` (centres unmarked) [Compound 171, (2-Chloro-phenyl)-(8-methyl-1,2,3a,4,5,6-hexahydro-pyrazino[3,2,1-jk]carbazol-3-yl)-methanone], the pEC50 was less than 6.00.

Staying with this assay, now noted: Homo sapiens, HeLa, purchased compounds 156-188, hypoxic conditions, VEGF protein by ELISA, read-out: ELISA EC50.
With `CCNC1CCCc2c1[nH]c1ccc(C)cc21` (centres unmarked) [Compound 185, Ethyl-(6-methyl-2,3,4,9-tetrahydro-1H-carbazol-1-yl)-amine], the pEC50 was less than 5.00.

`Cc1ccc2[nH]c3c(c2c1)CCCC3NCCCO` (centres unmarked) [Compound 177, 3-(6-Methyl-2,3,4,9-tetrahydro-1H-carbazol-1-ylamino)-propan-1-ol]: the pEC50 is less than 5.00.

For `S=C(Nc1ccccc1)N1CCn2c3c(c4cc(C5CCCCC5)ccc42)CCCC31` (centres unmarked) [Compound 164, 8-Cyclohexyl-1,2,3a,4,5,6-hexahydro-pyrazino[3,2,1-jk]carbazole-3-carbothioic acid phenylamide], the pEC50 is 5.66.

In the case of `C1=C(c2ccc3c(c2)c2c4n3CCN(Cc3ccccc3)C4CCC2)C2CCN1CC2` (centres unmarked) [Compound 166, 8-(1-Aza-bicyclo[2.2.2]oct-2-en-3-yl)-3-benzyl-2,3,3a,4,5,6-hexahydro-1H-pyrazino[3,2,1-jk]carbazole], the pEC50 is 5.18.

Take `Cc1ccc2c(c1)c1c3n2CCN(C(C)c2ccccc2)C3CCC1` (centres unmarked) [Compound 179, 8-Methyl-3-(1-phenyl-ethyl)-2,3,3a,4,5,6-hexahydro-1H-pyrazino[3,2,1-jk]carbazole]: the pEC50 is less than 5.00.

For `CC(=O)N(Cc1ccccc1)C1CCCc2c1[nH]c1ccc(C)cc21` (centres unmarked) [Compound 174, N-Benzyl-N-(6-methyl-2,3,4,9-tetrahydro-1H-carbazol-1-yl)-acetamide], the pEC50 was less than 5.00.

`Cc1ccc2c(c1)c1c3n2CCN(C(=O)c2ccccc2Cl)C3CCC1` (centres unmarked) [Compound 171, (2-Chloro-phenyl)-(8-methyl-1,2,3a,4,5,6-hexahydro-pyrazino[3,2,1-jk]carbazol-3-yl)-methanone]: the pEC50 is less than 5.00.

The values are drawn from patent publication US9271960B2, “Tetrahydrocarbazoles as active agents for inhibiting VEGF production by translational control” (PTC Therapeutics, Inc., priority 2004, dated 2016).
